From ChEMBL document CHEMBL3885881, “DrugMatrix”

Species on record: Rattus norvegicus
Experiment: DrugMatrix - Regimen: Daily Repeat
Assay type: toxicity, organism-based, Sprague-Dawley
Set-up: regimen Daily Repeat, gender Male, age 6-8 weeks
Conditions: in vivo, po, route oral GAVAGE, […]; for ABSOLUTE BASOPHIL / ABSOLUTE EOSINOPHIL / ABSOLUTE LYMPHOCYTE / ABSOLUTE MONOCYTE / ABSOLUTE SEGMENTED NEUTROPHIL / BASOPHIL / EOSINOPHIL / ERYTHROCYTE COUNT / HEMATOCRIT / HEMOGLOBIN / LEUKOCYTE COUNT / LYMPHOCYTE / MEAN CORPUSCULAR HEMOGLOBIN / MEAN CORPUSCULAR HEMOGLOBIN CONCENTRATION / MONOCYTE / NEUTROPHIL / NUCLEATED RED BLOOD CELLS / PLATELET COUNT: tissue Blood; for ALANINE AMINOTRANSFERASE / ALBUMIN / ALKALINE PHOSPHATASE / ASPARTATE AMINOTRANSFERASE / BLOOD UREA NITROGEN / CARBON DIOXIDE / CHLORIDE / CHOLESTEROL / CREATINE PHOSPHOKINASE / CREATININE / LACTATE DEHYDROGENASE / LIPASE / PHOSPHORUS / POTASSIUM / SODIUM / TOTAL BILIRUBIN / TOTAL PROTEIN / URIC ACID: tissue Plasma
[1] = 0 mg/kg, 72 h, dose level Control, time 3 day
[2] = 0 mg/kg, 120 h, dose level Control, time 5 day
[3] = 10 mg/kg, 72 h, dose level Low, time 3 day

Compound: CN(CCOc1ccc(CC2SC(=O)NC2=O)cc1)c1ccccn1 (stereo not drawn) [ROSIGLITAZONE]
- ABSOLUTE BASOPHIL [1]: 0 CELLS/uL
- ABSOLUTE EOSINOPHIL [1]: 14 CELLS/uL
- ABSOLUTE LYMPHOCYTE [1]: 11144.67 CELLS/uL
- ABSOLUTE MONOCYTE [1]: 22.5 CELLS/uL
- ABSOLUTE SEGMENTED NEUTROPHIL [1]: 535.5 CELLS/uL
- BASOPHIL [1]: 0%
- EOSINOPHIL [1]: 0.17%
- ERYTHROCYTE COUNT [1]: 5.08 x10E6/uL
- HEMATOCRIT [1]: 32.32%
- HEMOGLOBIN [1]: 12.87 G/DL
- LEUKOCYTE COUNT [1]: 11.72 x10E3/uL
- LYMPHOCYTE [1]: 94.67%
- MEAN CORPUSCULAR HEMOGLOBIN [1]: 25.37 pg
- MEAN CORPUSCULAR HEMOGLOBIN CONCENTRATION [1]: 39.85 G/DL
- MONOCYTE [1]: 0.17%
- NEUTROPHIL [1]: 5%
- NUCLEATED RED BLOOD CELLS [1]: 0 /100WBC
- PLATELET COUNT [1]: 1084 x10E3/uL
- ALANINE AMINOTRANSFERASE [1]: 67.5 u/L
- ALBUMIN [1]: 4.02 G/DL
- ALKALINE PHOSPHATASE [1]: 374.17 u/L
- ASPARTATE AMINOTRANSFERASE [1]: 83.5 u/L
- BLOOD UREA NITROGEN [1]: 14.5 mg/dL
- CARBON DIOXIDE [1]: 30 mmol/L
- CHLORIDE [1]: 100.5 MEQ/L
- CHOLESTEROL [1]: 71.33 mg/dL
- CREATINE PHOSPHOKINASE [1]: 268.33 u/L
- CREATININE [1]: 0.16 mg/dL
- LACTATE DEHYDROGENASE [1]: 81.17 u/L
- LIPASE [1]: 16.67 u/L
- PHOSPHORUS [1]: 10.07 mg/dL
- POTASSIUM [1]: 5.03 MEQ/L
- SODIUM [1]: 142.92 MEQ/L
- TOTAL BILIRUBIN [1]: 0.17 mg/dL
- TOTAL PROTEIN [1]: 5.63 G/DL
- URIC ACID [1]: 0.5 mg/dL
- ABSOLUTE BASOPHIL [2]: 0 CELLS/uL
- ABSOLUTE EOSINOPHIL [2]: 37.5 CELLS/uL
- ABSOLUTE LYMPHOCYTE [2]: 8049.5 CELLS/uL
- ABSOLUTE MONOCYTE [2]: 82.83 CELLS/uL
- ABSOLUTE SEGMENTED NEUTROPHIL [2]: 646.83 CELLS/uL
- BASOPHIL [2]: 0%
- EOSINOPHIL [2]: 0.5%
- ERYTHROCYTE COUNT [2]: 5.36 x10E6/uL
- HEMATOCRIT [2]: 33.9%
- HEMOGLOBIN [2]: 13.02 G/DL
- LEUKOCYTE COUNT [2]: 8.82 x10E3/uL
- LYMPHOCYTE [2]: 90.17%
- MEAN CORPUSCULAR HEMOGLOBIN [2]: 24.32 pg
- MEAN CORPUSCULAR HEMOGLOBIN CONCENTRATION [2]: 38.42 G/DL
- MONOCYTE [2]: 1.17%
- NEUTROPHIL [2]: 8.17%
- NUCLEATED RED BLOOD CELLS [2]: 0.17 /100WBC
- PLATELET COUNT [2]: 1231.5 x10E3/uL
- ALANINE AMINOTRANSFERASE [2]: 62 u/L
- ALBUMIN [2]: 3.97 G/DL
- ALKALINE PHOSPHATASE [2]: 303.67 u/L
- ASPARTATE AMINOTRANSFERASE [2]: 84.5 u/L
- BLOOD UREA NITROGEN [2]: 14.83 mg/dL
- CARBON DIOXIDE [2]: 31.83 mmol/L
- CHLORIDE [2]: 97 MEQ/L
- CHOLESTEROL [2]: 68.83 mg/dL
- CREATINE PHOSPHOKINASE [2]: 411.33 u/L
- CREATININE [2]: 0.16 mg/dL
- LACTATE DEHYDROGENASE [2]: 88.5 u/L
- LIPASE [2]: 9.5 u/L
- PHOSPHORUS [2]: 9.98 mg/dL
- POTASSIUM [2]: 5.72 MEQ/L
- SODIUM [2]: 141.62 MEQ/L
- TOTAL BILIRUBIN [2]: 0.1 mg/dL
- TOTAL PROTEIN [2]: 5.67 G/DL
- URIC ACID [2]: 0.52 mg/dL
- ABSOLUTE BASOPHIL [3]: 0 CELLS/uL
- ABSOLUTE EOSINOPHIL [3]: 0 CELLS/uL
- ABSOLUTE LYMPHOCYTE [3]: 11817.33 CELLS/uL
- ABSOLUTE MONOCYTE [3]: 150.67 CELLS/uL
- ABSOLUTE SEGMENTED NEUTROPHIL [3]: 1032 CELLS/uL
- BASOPHIL [3]: 0%
- EOSINOPHIL [3]: 0%
- ERYTHROCYTE COUNT [3]: 4.98 x10E6/uL
- HEMATOCRIT [3]: 32.63%
- HEMOGLOBIN [3]: 12.83 G/DL
- LEUKOCYTE COUNT [3]: 13 x10E3/uL
- LYMPHOCYTE [3]: 91.33%
- MEAN CORPUSCULAR HEMOGLOBIN [3]: 25.77 pg
- MEAN CORPUSCULAR HEMOGLOBIN CONCENTRATION [3]: 39.37 G/DL
- MONOCYTE [3]: 1%
- NEUTROPHIL [3]: 7.67%
- NUCLEATED RED BLOOD CELLS [3]: 0 /100WBC
- PLATELET COUNT [3]: 1118.67 x10E3/uL
- ALANINE AMINOTRANSFERASE [3]: 64.67 u/L
- ALBUMIN [3]: 4 G/DL
- ALKALINE PHOSPHATASE [3]: 377.67 u/L
- ASPARTATE AMINOTRANSFERASE [3]: 83.67 u/L
- BLOOD UREA NITROGEN [3]: 16.33 mg/dL
- CARBON DIOXIDE [3]: 32.67 mmol/L
- CHLORIDE [3]: 99.33 MEQ/L
- CHOLESTEROL [3]: 66.33 mg/dL
- CREATINE PHOSPHOKINASE [3]: 223.67 u/L
- CREATININE [3]: 0.16 mg/dL
- LACTATE DEHYDROGENASE [3]: 89 u/L
- LIPASE [3]: 9.67 u/L
- PHOSPHORUS [3]: 9.83 mg/dL
- POTASSIUM [3]: 5.42 MEQ/L
- SODIUM [3]: 143.77 MEQ/L
- TOTAL BILIRUBIN [3]: 0.13 mg/dL
- TOTAL PROTEIN [3]: 5.7 G/DL
- URIC ACID [3]: 0.53 mg/dL
